# Species on record: Rattus norvegicus
# Assay: DrugMatrix - Regimen: Daily Repeat
# Format: toxicity, organism-based, Sprague-Dawley
# Set-up: regimen Daily Repeat, gender Male, age 6-8 weeks
# Details: in vivo, po, route oral GAVAGE, vehicle 100 % WATER; for ABSOLUTE BASOPHIL / ABSOLUTE EOSINOPHIL / ABSOLUTE LYMPHOCYTE / ABSOLUTE MONOCYTE / ABSOLUTE SEGMENTED NEUTROPHIL / BASOPHIL / EOSINOPHIL / ERYTHROCYTE COUNT / HEMATOCRIT / HEMOGLOBIN / LEUKOCYTE COUNT / LYMPHOCYTE / MEAN CORPUSCULAR HEMOGLOBIN / MEAN CORPUSCULAR HEMOGLOBIN CONCENTRATION / MEAN CORPUSCULAR VOLUME / MONOCYTE / NEUTROPHIL / NUCLEATED RED BLOOD CELLS / PLATELET COUNT: tissue Blood; for ALANINE AMINOTRANSFERASE / ALBUMIN / ALKALINE PHOSPHATASE / ASPARTATE AMINOTRANSFERASE / BLOOD UREA NITROGEN / CARBON DIOXIDE / CHLORIDE / CHOLESTEROL / CREATINE PHOSPHOKINASE / CREATININE / GLUCOSE / LACTATE DEHYDROGENASE / LIPASE / PHOSPHORUS / POTASSIUM / SODIUM / TOTAL BILIRUBIN / TOTAL PROTEIN / URIC ACID: tissue Plasma
# [1] = 100 mg/kg, 120 h, dose level Low, time 5 day
# [2] = 750 mg/kg, 72 h, dose level High, time 3 day
# [3] = 750 mg/kg, 120 h, dose level High, time 5 day
compound,measurement,setting,value
NC(=O)c1cccnc1 [NIACINAMIDE],ABSOLUTE BASOPHIL,[1],0 CELLS/uL
same,ABSOLUTE EOSINOPHIL,[1],0 CELLS/uL
same,ABSOLUTE LYMPHOCYTE,[1],16541 CELLS/uL
same,ABSOLUTE MONOCYTE,[1],560 CELLS/uL
same,ABSOLUTE SEGMENTED NEUTROPHIL,[1],1799 CELLS/uL
same,BASOPHIL,[1],0%
same,EOSINOPHIL,[1],0%
same,ERYTHROCYTE COUNT,[1],5.76 x10E6/uL
same,HEMATOCRIT,[1],36.2%
same,HEMOGLOBIN,[1],13.57 G/DL
same,LEUKOCYTE COUNT,[1],18.9 x10E3/uL
same,LYMPHOCYTE,[1],87.67%
same,MEAN CORPUSCULAR HEMOGLOBIN,[1],23.57 pg
same,MEAN CORPUSCULAR HEMOGLOBIN CONCENTRATION,[1],37.47 G/DL
same,MEAN CORPUSCULAR VOLUME,[1],62.9 fL
same,MONOCYTE,[1],3%
same,NEUTROPHIL,[1],9.33%
same,NUCLEATED RED BLOOD CELLS,[1],0 /100WBC
same,PLATELET COUNT,[1],1257.67 x10E3/uL
same,ALANINE AMINOTRANSFERASE,[1],69.67 u/L
same,ALBUMIN,[1],4.27 G/DL
same,ALKALINE PHOSPHATASE,[1],376.67 u/L
same,ASPARTATE AMINOTRANSFERASE,[1],99.33 u/L
same,BLOOD UREA NITROGEN,[1],17 mg/dL
same,CARBON DIOXIDE,[1],24.33 mmol/L
same,CHLORIDE,[1],102.67 MEQ/L
same,CHOLESTEROL,[1],67.67 mg/dL
same,CREATINE PHOSPHOKINASE,[1],270.33 u/L
same,CREATININE,[1],0.34 mg/dL
same,GLUCOSE,[1],140.67 mg/dL
same,LACTATE DEHYDROGENASE,[1],278 u/L
same,LIPASE,[1],10.67 u/L
same,PHOSPHORUS,[1],13.13 mg/dL
same,POTASSIUM,[1],6.68 MEQ/L
same,SODIUM,[1],145.57 MEQ/L
same,TOTAL BILIRUBIN,[1],0.2 mg/dL
same,TOTAL PROTEIN,[1],6.03 G/DL
same,URIC ACID,[1],1.6 mg/dL
same,ABSOLUTE BASOPHIL,[2],0 CELLS/uL
same,ABSOLUTE EOSINOPHIL,[2],108.33 CELLS/uL
same,ABSOLUTE LYMPHOCYTE,[2],16413 CELLS/uL
same,ABSOLUTE MONOCYTE,[2],47.67 CELLS/uL
same,ABSOLUTE SEGMENTED NEUTROPHIL,[2],1431 CELLS/uL
same,BASOPHIL,[2],0%
same,EOSINOPHIL,[2],0.67%
same,ERYTHROCYTE COUNT,[2],6.31 x10E6/uL
same,HEMATOCRIT,[2],40.5%
same,HEMOGLOBIN,[2],14.57 G/DL
same,LEUKOCYTE COUNT,[2],18 x10E3/uL
same,LYMPHOCYTE,[2],91%
same,MEAN CORPUSCULAR HEMOGLOBIN,[2],23.2 pg
same,MEAN CORPUSCULAR HEMOGLOBIN CONCENTRATION,[2],36 G/DL
same,MEAN CORPUSCULAR VOLUME,[2],64.37 fL
same,MONOCYTE,[2],0.33%
same,NEUTROPHIL,[2],8%
same,NUCLEATED RED BLOOD CELLS,[2],0 /100WBC
same,PLATELET COUNT,[2],1228.67 x10E3/uL
same,ALANINE AMINOTRANSFERASE,[2],84 u/L
same,ALBUMIN,[2],4.57 G/DL
same,ALKALINE PHOSPHATASE,[2],402 u/L
same,ASPARTATE AMINOTRANSFERASE,[2],97.33 u/L
same,BLOOD UREA NITROGEN,[2],17 mg/dL
same,CARBON DIOXIDE,[2],27.33 mmol/L
same,CHLORIDE,[2],101 MEQ/L
same,CHOLESTEROL,[2],85 mg/dL
same,CREATINE PHOSPHOKINASE,[2],304.67 u/L
same,CREATININE,[2],0.23 mg/dL
same,GLUCOSE,[2],150.67 mg/dL
same,LACTATE DEHYDROGENASE,[2],174.67 u/L
same,LIPASE,[2],11 u/L
same,PHOSPHORUS,[2],10.23 mg/dL
same,POTASSIUM,[2],6.7 MEQ/L
same,SODIUM,[2],143.83 MEQ/L
same,TOTAL BILIRUBIN,[2],0.2 mg/dL
same,TOTAL PROTEIN,[2],6.17 G/DL
same,URIC ACID,[2],1.8 mg/dL
same,ABSOLUTE BASOPHIL,[3],0 CELLS/uL
same,ABSOLUTE EOSINOPHIL,[3],45.33 CELLS/uL
same,ABSOLUTE LYMPHOCYTE,[3],12211.67 CELLS/uL
same,ABSOLUTE MONOCYTE,[3],352 CELLS/uL
same,ABSOLUTE SEGMENTED NEUTROPHIL,[3],1824.33 CELLS/uL
same,BASOPHIL,[3],0%
same,EOSINOPHIL,[3],0.33%
same,ERYTHROCYTE COUNT,[3],5.73 x10E6/uL
same,HEMATOCRIT,[3],36.63%
same,HEMOGLOBIN,[3],13.6 G/DL
same,LEUKOCYTE COUNT,[3],14.43 x10E3/uL
same,LYMPHOCYTE,[3],85.33%
same,MEAN CORPUSCULAR HEMOGLOBIN,[3],23.77 pg
same,MEAN CORPUSCULAR HEMOGLOBIN CONCENTRATION,[3],37.13 G/DL
same,MEAN CORPUSCULAR VOLUME,[3],63.93 fL
same,MONOCYTE,[3],2.33%
same,NEUTROPHIL,[3],12%
same,NUCLEATED RED BLOOD CELLS,[3],0 /100WBC
same,PLATELET COUNT,[3],1227.33 x10E3/uL
same,ALANINE AMINOTRANSFERASE,[3],71.67 u/L
same,ALBUMIN,[3],4.53 G/DL
same,ALKALINE PHOSPHATASE,[3],405.67 u/L
same,ASPARTATE AMINOTRANSFERASE,[3],97 u/L
same,BLOOD UREA NITROGEN,[3],18 mg/dL
same,CARBON DIOXIDE,[3],28.67 mmol/L
same,CHLORIDE,[3],101.67 MEQ/L
same,CHOLESTEROL,[3],92 mg/dL
same,CREATINE PHOSPHOKINASE,[3],216.33 u/L
same,CREATININE,[3],0.2 mg/dL
same,GLUCOSE,[3],160.33 mg/dL
same,LACTATE DEHYDROGENASE,[3],82 u/L
same,LIPASE,[3],11 u/L
same,PHOSPHORUS,[3],10.6 mg/dL
same,POTASSIUM,[3],5.82 MEQ/L
same,SODIUM,[3],147.1 MEQ/L
same,TOTAL BILIRUBIN,[3],0.2 mg/dL
same,TOTAL PROTEIN,[3],6.33 G/DL
same,URIC ACID,[3],1.3 mg/dL

# From ChEMBL document CHEMBL3885881, “DrugMatrix”
